Experimental findings from ChEMBL document CHEMBL2046389, “Contribution of indazolinone tautomers to kinase activity” (Bioorg Med Chem Lett, 2012) are described below.

Molecules are shown by their SMILES.

Chain of Vascular endothelial growth factor receptor 2 (P35968 whole entry): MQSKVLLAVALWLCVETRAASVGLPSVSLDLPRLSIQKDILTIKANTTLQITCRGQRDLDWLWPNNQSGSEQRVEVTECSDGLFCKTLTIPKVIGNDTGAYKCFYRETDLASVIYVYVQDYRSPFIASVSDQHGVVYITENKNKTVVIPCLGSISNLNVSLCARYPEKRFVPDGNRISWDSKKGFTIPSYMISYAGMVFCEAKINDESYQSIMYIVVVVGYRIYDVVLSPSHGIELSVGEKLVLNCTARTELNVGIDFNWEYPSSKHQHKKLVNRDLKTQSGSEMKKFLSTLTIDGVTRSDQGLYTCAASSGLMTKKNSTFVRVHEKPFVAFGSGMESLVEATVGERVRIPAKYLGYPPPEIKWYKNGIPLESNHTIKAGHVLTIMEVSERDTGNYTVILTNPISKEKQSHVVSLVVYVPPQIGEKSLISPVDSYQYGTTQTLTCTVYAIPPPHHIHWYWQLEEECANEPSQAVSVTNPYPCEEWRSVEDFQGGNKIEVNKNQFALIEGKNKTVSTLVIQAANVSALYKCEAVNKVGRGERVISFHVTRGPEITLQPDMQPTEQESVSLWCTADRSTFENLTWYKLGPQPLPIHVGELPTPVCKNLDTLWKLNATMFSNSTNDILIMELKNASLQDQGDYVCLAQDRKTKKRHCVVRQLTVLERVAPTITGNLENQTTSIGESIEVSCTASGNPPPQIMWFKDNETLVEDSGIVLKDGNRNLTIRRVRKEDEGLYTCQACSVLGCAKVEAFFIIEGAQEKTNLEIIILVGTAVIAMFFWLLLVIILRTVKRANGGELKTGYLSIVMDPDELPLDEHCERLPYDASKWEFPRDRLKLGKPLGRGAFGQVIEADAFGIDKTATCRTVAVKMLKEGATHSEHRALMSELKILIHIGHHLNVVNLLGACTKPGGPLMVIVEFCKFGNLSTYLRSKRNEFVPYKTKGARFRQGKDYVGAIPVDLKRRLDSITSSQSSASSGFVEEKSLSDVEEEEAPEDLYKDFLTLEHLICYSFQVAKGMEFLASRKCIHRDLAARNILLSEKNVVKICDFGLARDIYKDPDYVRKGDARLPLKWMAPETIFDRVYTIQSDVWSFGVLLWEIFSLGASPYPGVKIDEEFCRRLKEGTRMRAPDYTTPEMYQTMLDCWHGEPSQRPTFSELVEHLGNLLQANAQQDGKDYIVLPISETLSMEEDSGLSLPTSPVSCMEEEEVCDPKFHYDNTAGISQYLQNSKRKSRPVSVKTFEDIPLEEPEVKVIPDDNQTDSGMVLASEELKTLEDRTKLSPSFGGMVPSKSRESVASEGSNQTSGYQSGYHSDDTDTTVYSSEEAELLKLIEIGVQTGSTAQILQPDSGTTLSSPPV

This assay has as its target Vascular endothelial growth factor receptor 2 (Homo sapiens, UniProt P35968). Description: Inhibition of KDR in presence of 1 mM ATP.
`O=C(Nc1ccc(-c2cccc3c(=O)[nH][nH]c23)cc1)Nc1cccc(C(F)(F)F)c1`: the IC50 was determined as 0.04 µM.
Next, `Cc1cccc(NC(=O)Nc2ccc(-c3cccc4c(N)n[nH]c34)cc2)c1`: over 1000 µM; `O=C(Nc1ccc(-c2cccc3[nH][nH]c(=O)c23)cc1)Nc1cccc(C(F)(F)F)c1`: 0.01 µM; `Cc1cccc(NC(=O)Nc2ccc(-c3cccc4c3C(=O)NC4)cc2)c1`: over 1000 µM.
